From patent US7842324B2 (Senomyx, Inc., priority 2005, dated 2010)

The compounds below were run against T1, hT1R2/hT1R3 sweet receptor expressed in HEK293 cell line (Homo sapiens, UniProt Q7RTX0+Q8TE23) (assay: In vitro hT1R2/hT1R3-HEK293 taste receptor activation assay (FLIPR)). Settings: Table A; read-out: SWEET EC50.
T1 construct: expressed in transfected cells; host or cells: HEK293 derivative stably expressing Gα15 and hT1R2/hT1R3, clone S-9
T1 sequence (Q8TE23 20-839): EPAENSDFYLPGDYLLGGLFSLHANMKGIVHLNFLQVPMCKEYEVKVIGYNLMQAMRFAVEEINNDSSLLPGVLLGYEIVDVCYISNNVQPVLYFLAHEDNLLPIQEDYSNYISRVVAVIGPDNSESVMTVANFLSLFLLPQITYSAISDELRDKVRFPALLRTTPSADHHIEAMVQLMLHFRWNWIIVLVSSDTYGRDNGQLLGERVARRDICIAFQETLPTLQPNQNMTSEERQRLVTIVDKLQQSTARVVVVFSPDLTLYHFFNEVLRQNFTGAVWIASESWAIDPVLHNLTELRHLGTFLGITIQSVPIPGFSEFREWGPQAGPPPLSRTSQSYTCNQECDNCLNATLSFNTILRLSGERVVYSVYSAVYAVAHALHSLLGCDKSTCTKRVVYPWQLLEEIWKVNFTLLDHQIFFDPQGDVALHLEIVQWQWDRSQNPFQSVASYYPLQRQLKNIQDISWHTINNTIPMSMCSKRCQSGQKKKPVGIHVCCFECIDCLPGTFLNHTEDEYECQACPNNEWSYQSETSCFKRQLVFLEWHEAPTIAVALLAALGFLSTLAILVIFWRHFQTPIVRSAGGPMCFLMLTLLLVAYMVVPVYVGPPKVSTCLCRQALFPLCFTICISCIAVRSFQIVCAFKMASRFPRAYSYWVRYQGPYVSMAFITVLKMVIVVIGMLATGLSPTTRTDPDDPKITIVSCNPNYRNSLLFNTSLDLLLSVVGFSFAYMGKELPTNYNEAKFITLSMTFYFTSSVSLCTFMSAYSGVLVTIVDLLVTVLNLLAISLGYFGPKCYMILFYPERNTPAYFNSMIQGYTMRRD
T1 sequence (Q7RTX0 21-852): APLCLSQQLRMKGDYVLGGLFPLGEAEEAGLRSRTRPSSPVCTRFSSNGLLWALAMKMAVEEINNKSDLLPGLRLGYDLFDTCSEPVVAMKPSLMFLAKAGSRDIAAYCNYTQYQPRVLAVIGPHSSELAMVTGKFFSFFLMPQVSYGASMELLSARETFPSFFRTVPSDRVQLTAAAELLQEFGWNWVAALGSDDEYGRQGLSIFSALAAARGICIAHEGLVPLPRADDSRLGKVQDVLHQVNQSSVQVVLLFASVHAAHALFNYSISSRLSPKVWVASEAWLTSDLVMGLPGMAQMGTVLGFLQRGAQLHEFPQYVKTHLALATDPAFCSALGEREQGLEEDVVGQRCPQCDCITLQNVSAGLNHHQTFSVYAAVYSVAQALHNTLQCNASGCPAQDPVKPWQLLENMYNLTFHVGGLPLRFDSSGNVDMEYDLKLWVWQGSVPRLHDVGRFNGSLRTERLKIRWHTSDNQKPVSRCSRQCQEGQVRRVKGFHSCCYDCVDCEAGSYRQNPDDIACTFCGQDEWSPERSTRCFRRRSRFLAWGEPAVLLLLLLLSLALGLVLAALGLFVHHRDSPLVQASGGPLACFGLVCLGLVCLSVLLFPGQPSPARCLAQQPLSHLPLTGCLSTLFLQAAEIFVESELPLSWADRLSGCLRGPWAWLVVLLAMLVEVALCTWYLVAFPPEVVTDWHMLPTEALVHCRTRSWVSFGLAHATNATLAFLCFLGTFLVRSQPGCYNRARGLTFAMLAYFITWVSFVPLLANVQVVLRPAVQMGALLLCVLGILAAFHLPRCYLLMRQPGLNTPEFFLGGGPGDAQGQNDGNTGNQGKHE
Format: cell-based
Experimental: An HEK293 cell line derivative (Chandrashekar et al., Cell (2000) 100:703-711) that stably expresses Gα15 and hT1R2/hT1R3 (Li et al., Proc Natl Acad Sci USA (2002) 99:4692-4696), see also PCT Publication No. WO 03/001876 A2) was used to identify compounds with sweet taste enhancing properties.
Compounds covered in this document were initially selected based on their activity on the hT1R2/hT1R3-HEK293-Gα15 cell line (Li et al. vide supra). Activity was determined using an automated fluorometric imaging assay on a FLIPR instrument ([…], Molecular Devices, Sunnyvale, Calif.) (designated FLIPR assay). Cells from one clone (designated S-9 cells) were seeded into 384-well plates (at approximately 50,000 cells per well) in a medium containing DMEM Low Glucose (Invitrogen, Carlsbad, Calif.), 10% dialyzed fetal bovine serum (Invitrogen, Carlsbad, Calif.), 100 Units/ml Penicillin G, and 100 μg/ml Streptomycin (Invitrogen, Carlsbad, Calif.) (Li et al. vide supra) see also PCT Publication No. WO 03/001876 A2). S-9 cells were grown for 24 hours at 37° C. S-9 cells were then loaded with the calcium dye Fluo-3AM (Molecular Probes, Eugene, Oreg.), 4 μM in a phosphate buffered saline (D-PBS) (Invitrogen, Carlsbad, Calif.), for 1 hour at room temperature. After replacement with 25 μl D-PBS, stimulation was performed in the FLIPR instrument and at room temperature by the addition of 25 μl D-PBS supplemented with different stimuli at concentrations corresponding to twice the desired final level. Receptor activity was quantified by determining the maximal fluorescence increases (using a 480 nm excitation and 535 nm emission) after normalization to basal fluorescence intensity measured before stimulation.
For dose-responses analysis, stimuli were presented in duplicates at 10 different concentrations ranging from 60 nM to 30 μM. Activities were normalized to the response obtained with 400 mM D-fructose, a concentration that elicits maximum receptor response. EC50s were determined using a non-linear regression algorithm (using a Senomyx, Inc. software), where the Hill slope, bottom asymptotes and top asymptotes were allow to vary. Identical results were obtained when analyzing the dose-response data using commercially available software for non-linear regression analysis such as GraphPad PRISM (San Diego, Calif.).

Compound | EC50 [µM]
CC(C(=O)NC1CC1)c1ccc(-c2ccccc2)c(F)c1 (stereo not shown) [Compound A1] | 3.52
CCC(C)NC(=O)[C@@H](C)c1ccc(-c2ccccc2)c(F)c1 (stereo partly shown) [Compound A2] | 2.38
CC(C)CNC(=O)C(C)(C)c1ccc(-c2ccccc2)c(F)c1 [Compound A3] | 1.71
COCC(C)NC(=O)C(C)(C)c1ccc(-c2ccccc2)c(F)c1 (stereo not shown) [Compound A4] | 3.19
CC(C)CNC(=O)C(C)c1ccc(-c2ccccc2)cc1 (stereo not shown) [Compound A5] | 4.26
CC(C)CNC(=O)C(C)c1ccc(-c2cccc(F)c2)cc1 (stereo not shown) [Compound A6] | 1.8
COc1cccc(-c2ccc(C(C)C(=O)NCC(C)C)cc2)c1 (stereo not shown) [Compound A7] | 5.58
CC(C)CNC(=O)Cc1ccc(-c2ccccc2)c(F)c1 [Compound A8] | 7.5
CC(C)CNC(=O)C(C)(C)c1ccc(-c2ccncc2)cc1 [Compound A9] | 1.66
CC(C)CNC(=O)C(C)(C)c1ccc(-c2ccc3[nH]ccc3c2)cc1 [Compound A10] | 3.36
CC(C)CNC(=O)C(C)(C)c1ccc(-c2cncnc2)cc1 [Compound A11] | 2.13
CCC(COC)NC(=O)C(C)c1ccc(-c2ccccc2)c(F)c1 (stereo not shown) [Compound A12] | 4.5
CCc1ccccc1-c1ccc(C(C)(C)C(=O)NCC(C)C)cc1 [Compound A13] | 7
CSc1ccccc1-c1ccc(C(C)(C)C(=O)NCC(C)C)cc1 [Compound A14] | 9
COC(=O)c1ccccc1-c1ccc(C(C)(C)C(=O)NCC(C)C)cc1 [Compound A15] | 4
CC(C)CNC(=O)C(C)(C)c1ccc(-c2cccc(C(C)C)c2)cc1 [Compound A16] | 6
CCCOc1cccc(-c2ccc(C(C)(C)C(=O)NCC(C)C)cc2)c1 [Compound A17] | 5.6
COc1cccc(-c2ccc(C(C)(C)C(=O)NCC(C)C)cc2)c1OC [Compound A18] | 6.6
COc1ccc(-c2ccc(C(C)(C)C(=O)NCC(C)C)cc2)c(OC)c1 [Compound A19] | 7.1
COCOCc1c(C=O)cccc1-c1ccc(C(C)(C)C(=O)NCC(C)C)cc1 [Compound A23] | 1.1
CC(C)CNC(=O)C(C)(C)c1ccc(-c2cnc3ccccn23)cc1 [Compound A25] | 1.23
CC(C)CNC(=O)C(C)(C)c1ccc(-c2cccc3[nH]ccc23)cc1 [Compound A26] | 2.02
COCc1cccc(-c2ccc(C(C)(C)C(=O)NCC(C)C)nc2)c1 [Compound A30] | 3.05
COCc1cccc(-c2ccc(C(C)(C)C(=O)NCC(C)C)cn2)c1 [Compound A31] | 3.79
CC(C)CNC(=O)C(C)(C)c1ccc(-c2cscn2)cc1 [Compound A32] | 5.4

Further lines, results first:

EC50 [µM] | Compound
0.71 | CC(NC(=O)C(C)(C)c1ccc(-c2cncc(C#N)c2)cc1)c1ccccc1 (stereo not shown) [Compound A20]
0.94 | CC(C)CCNC(=O)C(C)(C)c1ccc(-c2cncc(C#N)c2)cc1 [Compound A21]
0.94 | CC(C)NC(=O)C(C)(C)c1ccc(-c2cncc(C#N)c2)cc1 [Compound A22]
1.17 | CC(=O)c1ccccc1-c1ccc(C(C)(C)C(=O)NCC(C)C)cc1 [Compound A24]
2.06 | CC(C)(C(=O)NC[C@@H]1CCCO1)c1ccc(-c2cncc(C#N)c2)cc1 [Compound A27]
2.06 | CC(C)(C(=O)N[C@@H](O)c1ccccc1)c1ccc(-c2cncc(C#N)c2)cc1 [Compound A28]
2.91 | CCCNC(=O)C(C)(C)c1ccc(-c2cncc(COC)c2)cc1 [Compound A29]

Same assay, conditions: read-out: EC50 for activation of a hT1R2/hT1R3 sweet receptor expressed in HEK293 cell line

Compound | EC50 [µM]
CC(C)CNC(=O)C(C)(C)c1nc(-c2ccccc2)no1 [Compound 41, N-isobutyl-2-methyl-2-(3-phenyl-1,2,4-oxadiazol-5-yl)propanamide] | 6.53
COC(C)CNC(=O)C(C)(C)c1ccc(-c2cncc(C#N)n2)cc1 (stereo not shown) [Compound 45, 2-(4-(6-cyanopyrazin-2-yl)phenyl)-N-(2-methoxypropyl)-2-methylpropanamide] | 0.92
Cc1cc(C(C)(C)C(=O)NCC(C)C)ccc1-c1ccccc1 [Compound 50, N-isobutyl-2-methyl-2-(2-methylbiphenyl-4-yl)propanamide] | 1.42

Other lines, results leading:

EC50 [µM] | Compound
10.6 | CC(C)CNC(=O)C(C)(C)c1ccc(-c2cncc(C#N)c2)cn1 [Compound 42, 2-(5′-cyano-3,3′-bipyridin-6-yl)-N-isobutyl-2-methylpropanamide]
0.65 | CC(C)[C@@H](C)NC(=O)C(C)(C)c1ccc(-c2cncnc2)cc1 [Compound 44, (R)-2-methyl-N-(3-methylbutan-2-yl)-2-(4-(pyrimidin-5-yl)phenyl)propanamide]
1.19 | CC(C)(C(=O)NCC(O)c1ccco1)c1ccc(-c2cncc(C#N)c2)cc1 (stereo not shown) [Compound 46, 2-(4-(5-cyanopyridin-3-yl)phenyl)-N-(2-(furan-2-yl)-2-hydroxyethyl)-2-methylpropanamide]
0.14 | CC[C@@H](C)NC(=O)C(C)(C)c1ccc(-c2cncc(C#N)n2)cc1 [Compound 47, (R)-N-sec-butyl-2-(4-(6-cyanopyrazin-2-yl)phenyl)-2-methylpropanamide]
0.19 | CC(NC(=O)C(C)(C)c1ccc(-c2cncc(C#N)n2)cc1)c1ccco1 (stereo not shown) [Compound 48, 2-(4-(6-cyanopyrazin-2-yl)phenyl)-N-(1-(furan-2-yl)ethyl)-2-methylpropanamide]
0.47 | CC(C)(C(=O)NCc1ccco1)c1ccc(-c2cncc(C#N)n2)cc1 [Compound 49, 2-(4-(6-cyanopyrazin-2-yl)phenyl)-N-(furan-2-ylmethyl)-2-methylpropanamide]
1.03 | CC[C@@H](CO)NC(=O)C(C)(C)c1ccc(-c2cncc(C#N)n2)cc1 [Compound 51, (S)-2-(4-(6-cyanopyrazin-2-yl)phenyl)-N-(1-hydroxybutan-2-yl)-2-methylpropanamide]
0.38 | CCC(CC)NC(=O)C(C)(C)c1ccc(-c2cncnc2)cc1 [Compound 52, 2-methyl-N-(pentan-3-yl)-2-(4-(pyrimidin-5-yl)phenyl)propanamide]
